From patent US7569587B2, “Antibacterial mutilins” (Nabriva Therapeutics AG, priority 2000, dated 2009) come the findings set out here.

The structures appear in SMILES notation.

For this experiment, the system named is Staphylococcus. Briefly: Systemic infections of mice (Handbook of animal models of infection). Type of experiment: in vivo. To be noted: parenteral or oral administration, Probit analysis. The source says: The active compounds of the present invention show e.g. activity in systemic infections of mice determined according to the Handbook of animal models of infection.
ED50=Effective dosage in mg/kg body weight per application by which 50% of the treated animals are protected from death; calculated by Probit analysis (n=8 animals/group).
Turning to `C=CC1(C)CC(OC(=O)CSC2CCN(C(=O)[C@H](N)Cc3c[nH]cn3)C2)C2(C)C(C)CCC3(CCC(=O)C32)C(C)C1O` (stereo partly drawn) [Example 6, 4-O—[(N—(R)-histidinyl-pyrrolidin-3-yl)sulfanylacetyl]mutilin], the “ED50 (dosage by which 50% of the treated animals are protected from death)” value is given as “about 11.0 mg/kg body weight”.
Regarding `C=CC1(C)CC(OC(=O)CS[C@H]2CCCN(C(=O)[C@H](N)C(C)C)C2)C2(C)C(C)CCC3(CCC(=O)C32)C(C)C1O` (stereo partly drawn) [Example 1], the “ED50 (dosage by which 50% of the treated animals are protected from death)” value is approximately 7.0 mg/kg body weight.
Under `C=CC1(C)CC(OC(=O)CSC2CCN(C(=O)[C@H](N)C(C)C)C2)C2(C)C(C)CCC3(CCC(=O)C32)C(C)C1O` (stereo partly drawn) [Example 5, 14-O—[(N-(3-methyl-2(R)-amino-butyryl)-pyrrolidine-3-yl)-sulfanylacetyl]-mutilin] stands “about 11.0 mg/kg body weight”.
